# In US20170029388A1, “Treatment of Neurodegenerative Diseases with Asparagine Endopeptidase (AEP) Inhibitors and Compositions Related Thereto” (INTERCONTINENTAL GREAT BRANDS LLC, priority 2014, published 2017):
# What was measured:
# purified human AEP = target: T1, purified human AEP (Homo sapiens, UniProt Q99538); experiment: AEP enzymatic assay with purified active enzyme (IC50); assay type: biochemical; details: purified recombinant enzyme; read-out: IC50 toward AEP
# T1 construct: tested with purified active AEP, IC50 values for the top 8 candidates were found; purchased Sino Biological
# T1 sequence (Q99538 18-323 limits assumed): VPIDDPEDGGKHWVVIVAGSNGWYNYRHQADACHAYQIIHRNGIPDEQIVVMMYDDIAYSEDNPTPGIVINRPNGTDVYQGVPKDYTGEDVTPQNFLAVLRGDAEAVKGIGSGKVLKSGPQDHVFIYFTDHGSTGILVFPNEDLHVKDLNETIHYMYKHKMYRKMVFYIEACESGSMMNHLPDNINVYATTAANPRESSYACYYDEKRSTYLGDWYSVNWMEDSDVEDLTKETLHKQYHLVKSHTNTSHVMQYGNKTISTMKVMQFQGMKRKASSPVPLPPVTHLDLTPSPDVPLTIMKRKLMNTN
# Method: FIG. 1 illustrates a high-throughput screening scheme. […] The hits were validated further with purified human AEP, and promising compounds were categorized into 8 groups. Compounds from each group were tested and the cytotoxicity and specificity were determined.
# (§1) Purified recombinant enzyme was incubated with various concentrations of inhibitor in appropriate assay buffers in the presence of increasing concentrations of inhibitor. The formation of fluorescent product was monitored in duplicate reactions and the data was fit to appropriate equations to calculate the IC50 values.
# (§2) To identify small-molecule inhibitors of AEP, a high-throughput screen was designed in conjunction with the Emory Chemical Biology Discovery Center. The screen incorporated mouse kidney lysates to assay a 54,384 compound library. […] Additional structural analysis and grouping allowed the compounds to be sorted into 8 distinct backbone families. […] The specificity of the compounds was also determined using four major cysteine proteases (FIG. 2).
# AEP—50 nM enzyme was pre-incubated with inhibitor in assay buffer (50 mM Sodium Citrate pH 5.5, 0.1% CHAPS, 60 mM Na2HPO4, 1 mM EDTA) for 10 min at 37° C. The reaction was initiated upon addition of 10 μM Cbz-Ala-Ala-Asn-AMC (Bachem)).
# Cathepsin-L = Cathepsin-L (Homo sapiens, UniProt P07711); experiment: Cathepsin-L enzymatic assay (specificity); assay type: biochemical
# Cathepsin-L, sequence (P07711 114-333, species assumed): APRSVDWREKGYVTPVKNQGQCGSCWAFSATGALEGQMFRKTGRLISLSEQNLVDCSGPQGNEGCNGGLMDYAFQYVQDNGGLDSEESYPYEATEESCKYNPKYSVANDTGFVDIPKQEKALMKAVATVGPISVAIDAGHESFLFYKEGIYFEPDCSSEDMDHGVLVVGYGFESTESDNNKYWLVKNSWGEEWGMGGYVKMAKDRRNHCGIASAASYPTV
# Method: as §1, §2
# Cathepsin-L—100 nM enzyme was pre-incubated with inhibitor in assay buffer (100 mM Sodium Acetate pH 5.5, 1 mM EDTA) for 10 min at 37° C. The reaction was initiated upon addition of 25 μM substrate (D-Val-Leu-Lys-AMC (Bachem)).
# Cathepsin-S = target: T2, Cathepsin-S (Homo sapiens, UniProt P25774); experiment: Cathepsin-S enzymatic assay (specificity); assay type: biochemical
# T2 construct: purchased Athens Research and Technology
# T2 sequence (P25774 115-331): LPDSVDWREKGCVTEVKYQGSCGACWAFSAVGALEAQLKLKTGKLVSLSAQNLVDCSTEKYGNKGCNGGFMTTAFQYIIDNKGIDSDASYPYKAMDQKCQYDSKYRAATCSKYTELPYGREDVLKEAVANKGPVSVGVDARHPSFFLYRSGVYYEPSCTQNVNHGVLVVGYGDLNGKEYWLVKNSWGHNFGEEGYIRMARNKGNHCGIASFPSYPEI
# Method: as §1, §2
# Cathepsin-S—100 nM enzyme was pre-incubated with inhibitor in assay buffer (100 mM NaH2PO4 pH 6.5, 100 mM NaCl) for 10 min at 37° C. The reaction was initiated upon addition of 25 μM substrate (Boc-Val-Leu-Lys-AMC (Bachem)).
# Caspase-3 = target: T3, Caspase-3 (Homo sapiens, UniProt P42574); experiment: Caspase-3 enzymatic assay (specificity); assay type: biochemical
# T3 construct: purchased Millipore
# T3 sequence (P42574 29-175 limits assumed, species assumed): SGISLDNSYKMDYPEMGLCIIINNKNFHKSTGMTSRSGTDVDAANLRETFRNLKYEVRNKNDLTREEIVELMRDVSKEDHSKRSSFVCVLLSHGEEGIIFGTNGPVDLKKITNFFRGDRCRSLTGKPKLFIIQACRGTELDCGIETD
# T3 sequence (P42574 176-277 limits assumed, species assumed): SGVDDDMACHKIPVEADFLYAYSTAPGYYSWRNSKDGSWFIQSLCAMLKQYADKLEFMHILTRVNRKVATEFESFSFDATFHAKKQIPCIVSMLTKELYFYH
# Method: as §1, §2
# (§3) Caspase-3 and 8 —The enzyme was pre-incubated with inhibitor in assay buffer (100 mM HEPES pH 7.4, 0.1% CHAPS, 10% Sucrose) for 10 min at 37° C. The reaction was initiated upon addition of 25 μM substrate (Ac-Asp-Glu-Val-Asp-AMC (Bachem)).
# Caspase-8 = target: T4, Caspase-8 (Homo sapiens, UniProt Q14790); experiment: Caspase-8 enzymatic assay (specificity); assay type: biochemical
# T4 construct: purchased Millipore
# T4 sequence (Q14790 217-374 limits assumed, species assumed): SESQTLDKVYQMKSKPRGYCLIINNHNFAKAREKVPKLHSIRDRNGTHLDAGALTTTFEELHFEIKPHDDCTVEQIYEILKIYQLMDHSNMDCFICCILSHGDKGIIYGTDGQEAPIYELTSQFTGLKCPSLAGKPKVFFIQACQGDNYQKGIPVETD
# T4 sequence (Q14790 385-479 limits assumed, species assumed): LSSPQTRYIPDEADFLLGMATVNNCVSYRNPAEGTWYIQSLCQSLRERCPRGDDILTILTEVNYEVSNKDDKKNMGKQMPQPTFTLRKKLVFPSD
# Method: as §1, §2, §3
# Caco-2 monolayer = Caco-2 monolayer permeability screen; assay type: in vitro ADME
# Method: To explore the in vitro ADME profiles of the compounds, additional tests were conducted.
# CYP3A4 = CYP3A4 (Homo sapiens, UniProt P08684); experiment: CYP inhibition screening, CYP3A4-Midazolam; assay type: in vitro ADME
# CYP3A4, sequence (P08684 whole entry): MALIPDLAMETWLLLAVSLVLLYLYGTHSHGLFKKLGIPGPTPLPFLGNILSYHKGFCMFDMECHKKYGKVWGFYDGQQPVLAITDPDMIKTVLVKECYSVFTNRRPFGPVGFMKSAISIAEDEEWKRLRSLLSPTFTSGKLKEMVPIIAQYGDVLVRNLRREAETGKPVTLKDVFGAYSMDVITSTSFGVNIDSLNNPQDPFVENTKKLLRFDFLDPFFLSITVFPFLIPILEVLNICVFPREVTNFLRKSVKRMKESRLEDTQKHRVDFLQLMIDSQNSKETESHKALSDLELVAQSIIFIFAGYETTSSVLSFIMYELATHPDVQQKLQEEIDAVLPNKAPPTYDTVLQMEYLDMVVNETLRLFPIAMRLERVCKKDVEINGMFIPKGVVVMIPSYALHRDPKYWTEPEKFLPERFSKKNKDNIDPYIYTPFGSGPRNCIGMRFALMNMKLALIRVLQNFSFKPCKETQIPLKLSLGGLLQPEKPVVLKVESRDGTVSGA
# CYP3A = experiment: CYP inhibition screening, CYP3A-Testosterone; assay type: in vitro ADME
# CYP2C9 = CYP2C9 (Homo sapiens, UniProt P11712); experiment: CYP inhibition screening, CYP2C9; assay type: in vitro ADME
# CYP2C9, sequence (P11712 whole entry): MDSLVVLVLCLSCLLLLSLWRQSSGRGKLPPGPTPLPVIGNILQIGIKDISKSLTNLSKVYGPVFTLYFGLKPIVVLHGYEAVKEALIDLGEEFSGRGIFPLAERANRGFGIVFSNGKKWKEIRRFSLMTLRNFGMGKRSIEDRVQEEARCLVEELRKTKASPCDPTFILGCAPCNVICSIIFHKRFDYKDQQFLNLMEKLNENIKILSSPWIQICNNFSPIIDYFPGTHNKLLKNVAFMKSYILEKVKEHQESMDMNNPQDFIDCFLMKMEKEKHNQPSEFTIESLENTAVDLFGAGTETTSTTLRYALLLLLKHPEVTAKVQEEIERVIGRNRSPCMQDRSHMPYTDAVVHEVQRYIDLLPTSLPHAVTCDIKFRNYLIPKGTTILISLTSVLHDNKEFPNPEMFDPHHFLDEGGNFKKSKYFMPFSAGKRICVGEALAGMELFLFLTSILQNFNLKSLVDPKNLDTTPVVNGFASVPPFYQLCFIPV
# CYP2D6 = CYP2D6 (Homo sapiens, UniProt P10635); experiment: CYP inhibition screening, CYP2D6; assay type: in vitro ADME
# CYP2D6, sequence (P10635 whole entry): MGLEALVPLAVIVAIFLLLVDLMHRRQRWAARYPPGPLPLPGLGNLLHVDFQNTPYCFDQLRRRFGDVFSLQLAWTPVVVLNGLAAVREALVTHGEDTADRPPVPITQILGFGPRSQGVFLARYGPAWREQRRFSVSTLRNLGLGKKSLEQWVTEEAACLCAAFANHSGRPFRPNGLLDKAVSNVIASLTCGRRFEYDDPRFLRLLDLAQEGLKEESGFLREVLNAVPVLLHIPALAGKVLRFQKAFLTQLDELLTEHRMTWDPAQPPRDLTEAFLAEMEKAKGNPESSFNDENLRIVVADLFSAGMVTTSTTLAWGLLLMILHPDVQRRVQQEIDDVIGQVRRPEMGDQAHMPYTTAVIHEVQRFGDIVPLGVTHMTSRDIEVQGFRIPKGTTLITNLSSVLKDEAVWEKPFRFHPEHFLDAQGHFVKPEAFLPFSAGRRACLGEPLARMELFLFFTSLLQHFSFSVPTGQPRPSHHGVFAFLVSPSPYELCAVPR
# CYP2C19 = CYP2C19 (Homo sapiens, UniProt P33261); experiment: CYP inhibition screening, CYP2C19; assay type: in vitro ADME
# CYP2C19, sequence (P33261 whole entry): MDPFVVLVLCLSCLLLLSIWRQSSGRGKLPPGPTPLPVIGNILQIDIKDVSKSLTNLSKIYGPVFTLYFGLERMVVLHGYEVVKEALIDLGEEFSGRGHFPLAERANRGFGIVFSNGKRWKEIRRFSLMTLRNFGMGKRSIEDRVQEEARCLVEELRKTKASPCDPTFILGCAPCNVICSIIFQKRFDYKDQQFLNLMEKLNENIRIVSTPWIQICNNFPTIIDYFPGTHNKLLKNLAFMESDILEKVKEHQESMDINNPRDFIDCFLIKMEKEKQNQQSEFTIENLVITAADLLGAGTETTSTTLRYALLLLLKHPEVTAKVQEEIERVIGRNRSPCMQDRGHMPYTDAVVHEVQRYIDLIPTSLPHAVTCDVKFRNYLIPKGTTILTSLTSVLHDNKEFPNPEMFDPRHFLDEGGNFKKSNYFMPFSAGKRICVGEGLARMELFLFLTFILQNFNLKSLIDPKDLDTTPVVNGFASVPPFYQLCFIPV
# CYP1A2 = target: T5, CYP1A2 (Homo sapiens, UniProt P05177); experiment: CYP inhibition screening, CYP1A2; assay type: in vitro ADME
# T5 sequence (P05177 1-516): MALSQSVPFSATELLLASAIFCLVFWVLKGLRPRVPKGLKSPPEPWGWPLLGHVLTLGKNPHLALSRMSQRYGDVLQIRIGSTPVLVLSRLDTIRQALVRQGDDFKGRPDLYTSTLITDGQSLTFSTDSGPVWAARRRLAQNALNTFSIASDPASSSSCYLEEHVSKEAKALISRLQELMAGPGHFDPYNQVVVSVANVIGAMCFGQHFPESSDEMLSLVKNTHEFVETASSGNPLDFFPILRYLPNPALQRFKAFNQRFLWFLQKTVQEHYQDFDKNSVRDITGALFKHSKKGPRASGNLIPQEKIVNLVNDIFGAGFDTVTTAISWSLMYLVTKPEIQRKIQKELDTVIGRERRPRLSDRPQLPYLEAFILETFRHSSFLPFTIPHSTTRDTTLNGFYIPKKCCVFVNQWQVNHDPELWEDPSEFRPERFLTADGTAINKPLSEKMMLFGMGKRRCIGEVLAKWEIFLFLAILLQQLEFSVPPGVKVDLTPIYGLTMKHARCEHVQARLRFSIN
# [1] = system: cleavage of the amyloid precursor protein (APP); experiment: OGD in primary cortical neurons, APP cleavage (immunoblot); assay type: cell-based
# Method: A. AEP activity, measured in primary neuronal cultures with 5 μM Cbz-Ala-Ala-Asn-AMC (x-axis denotes neurons were treated with 0.1 μM or 1.0 μM specified compound). B. Caspase activity, measured in primary neuronal cultures with 5 μM Ac-Asp-Glu-Val-Asp-AMC. C. Cathepsin activity, measured in primary neuronal cultures with 5 μM D-Val-Leu-Lys-AMC. D. Inhibition of APP cleavage. Lysates of primary cortical neurons pre-incubated with compounds for 30 min, underwent OGD for 4 hrs, were reperfused for 18 hrs (normoxia neurons remained at normoxic conditions). E. APP can be cleaved in a dose-dependent manner. Lysates of primary cortical neurons pre-incubated with compounds for 30 min, underwent OGD for 4 hrs, were reperfused for 18 hrs (normoxia neurons remained at normoxic conditions).
# Depriving cells of oxygen and glucose is a cellular model that is employed to trigger acidosis in cultured cells. The efficacy of the compounds in a cellular model of oxygen-glucose deprivation (OGD) was determined in an effort to mimic the effects of stroke in primary cultured neurons. As a result of depriving neurons of oxygen and glucose-containing medium, AEP activity was doubled (FIG. 7A, ‘DMSO-Norm’ compared to ‘DMSO-OGD’), while Caspase-3 and Cathepsin activities remained relatively unchanged. […] Cleavage of APP is observed in response to only DMSO treatment (FIG. 7D, lane 2), and it appears that upon the treatment of 1 μM of compounds 10, 11, and 12, and just 0.1 μM of compounds 31, 38 and 64, the cleavage was blocked, presumably due to AEP inhibition.
# Compounds were pre-incubated with primary culture neurons, DIV13, for 30 min. The medium was exchanged for glucose-free DMEM and neurons were de-gased and incubated at 37° C., 95% N2/5% CO2 for 4 hrs with compounds. The medium was exchanged for DMEM and supplemented with compounds, then neurons were reperfused for 18 hrs under normoxic conditions. The neuronal lysates were prepared for AEP, Caspase-3 and Cathepsin assays. Moreover, immunoblotting analysis was conducted with the neuronal lysates using anti-APP, anti-AEP antibodies.
# [2] = PAMPA
# [3] = Liver microsomal stability, human; details: human liver microsomes
# [4] = Liver microsomal stability, mouse; details: mouse liver microsomes
# [5] = target: T6, AEP in human B lymphoblastoid Pala cells (Homo sapiens, UniProt Q99538); experiment: IC50 assays in intact Pala cells; assay type: cell-based; details: 2 hr incubation, residual AEP activity in lysate
# T6 construct: human B lymphoblastoid pala cells, which are rich in endogenous AEP; endogenous in cells; host or cells: Pala cells (human B lymphoblastoid)
# Method: The cells were incubated with inhibitors for 2 hrs then cells washed, harvested and lysed and the residual enzymatic activity was determined. Lysate was normalized by Bradford assay and the experiment was performed in triplicate and the mean results and SEM were plotted.
# In an attempt to assess the activity of the compounds in intact cells, the compounds were incubated with human B lymphoblastoid pala cells, which are rich in endogenous AEP and have been used for inhibiting AEP in cellular assay.
# Human B Lymphoblastoid Pala cells, which express high concentrations of AEP, were cultured in RPMI-1640, supplemented with 10% FBS, 2 mM L-Glutamine, 100 units/mL Penicillin, 100 μg/mL Streptomycin. Various concentrations of each compound were incubated with the Pala cells for 2 hr at 37° C. Cells were collected, washed twice with PBS and lysed in Lysis Buffer (20 mM Citric Acid, 60 mM Disodium Hydrogen Orthophosphate, 1 mM EDTA, 0.1% CHAPS, pH 5.8). The protein concentrations were normalized by Bradford assay and lysates were assayed with 5 μ,M Cbz-Ala-Ala-Asn-AMC. […] Data were analyzed with GraFit version 5.0.11 software package.
# AEP = target: T7, AEP (Homo sapiens, UniProt Q99538); experiment: DTT reversibility assay; assay type: biochemical; details: 5x IC50 of compound, 10 mM DTT or L-cysteine
# T7 construct: tested with purified active AEP, IC50 values for the top 8 candidates were found; purchased Sino Biological
# T7 sequence (Q99538 18-323 limits assumed): T1 sequence (Q99538 18-323 limits assumed)
# Method: AEP was reacted with specified inhibitor, after 15 min 10 mM DTT or L-cysteine was added to the reaction and the fluorescent signal was read for an additional 15 min. At the end of the second 15 min incubation, the percentage of product formed in the presence of each compound was determined in comparison to the DMSO control reaction.
# Although it is not intended that embodiments of this disclosure be limited by any particular mechanism, to gain additional insight into the mechanism utilized by the inhibitors for abrogation of AEP activity, their reversibility in the presence of free thiols was determined. The addition of a strong reducing agent, such as DTT, or a weaker reducing agent, L-cysteine, to an inhibited reaction can be used to out-compete the inhibitory agent and restore catalytic activity to an enzyme with an active-site thiol residue. Here, a similar approach was used by adding a reducing agent, either DTT or L-cysteine, to a reaction, in which AEP had been incubated with a specified inhibitor, in an attempt to reverse the effects of the inhibitor. […] For compounds BB1 and 38, this increase in enzymatic activity may be due to the reduction of a disulfide linkage between the inhibitor and the enzyme, since these compounds contain thiols. Compound 10 contains a thiocyanate and may undergo nucleophilic attack by the enzyme's active-site thiolate to form a thioimidate enzyme-inhibitor complex. Under acidic conditions, this complex is reducible by either a strong reducing agent, such as DTT, or the weaker L-cysteine.
# Simultaneously, 10 mM (final concentration) dithiothreitol (DTT) or L-cysteine was added to each reaction and incubated for an additional 15 min. At the end of the second 15 min incubation time, the fluorescence was measured for each sample. The amount of product formed in the presence of DMSO was used to determine the percentage of AEP activity in the presence of each drug.
Compound,A -> B Papp (Caco-2 monolayer; Caco-2),B -> A Papp (Caco-2 monolayer; Caco-2),"CYP inhibition, CYP3A4-Midazolam (CYP3A4; test concentration 3 μM) [%]","CYP inhibition, CYP3A4-Midazolam (CYP3A4; test concentration 10 μM) [%]","CYP inhibition, CYP3A-Testosterone (CYP3A; test concentration 3 μM) [%]","CYP inhibition, CYP3A-Testosterone (CYP3A; test concentration 10 μM) [%]","CYP inhibition, CYP2C9 (CYP2C9; test concentration 3 μM) [%]","CYP inhibition, CYP2C9 (CYP2C9; test concentration 10 μM) [%]","CYP inhibition, CYP2D6 (CYP2D6; test concentration 3 μM) [%]","CYP inhibition, CYP2D6 (CYP2D6; test concentration 10 μM) [%]","CYP inhibition, CYP2C19 (CYP2C19; test concentration 3 μM) [%]","CYP inhibition, CYP2C19 (CYP2C19; test concentration 10 μM) [%]","CYP inhibition, CYP1A2 (CYP1A2; test concentration 3 μM) [%]","CYP inhibition, CYP1A2 (CYP1A2; test concentration 10 μM) [%]",cleavage of APP after OGD ([1]; 0.1 μM compound),further results
CCN(CC)c1ccc(CN2CCc3nc(C)[nH]c(=O)c3C2)c(OC)c1 [Compound 64],<LLOQ,<LLOQ,0.6,10.1,1.5,−0.1,4.6,7.9,34.6,58.3,31.6,20.4,23.7,22.2,blocked,IC50 (purified human AEP): 2.37 µM; selectivity for AEP over Cathepsin-L (Cathepsin-L): over 40 fold; selectivity for AEP over Cathepsin-S (Cathepsin-S): over 40 fold; selectivity for AEP over Caspase-3 (Caspase-3): about 6 fold; selectivity for AEP over Caspase-8 (Caspase-8): over 40 fold
COc1ccc(N2CCN(C(c3ccc(N(C)C)cc3)c3nnnn3C(C)(C)C)CC2)cc1 (stereo not shown) [Compound 31],19.3 10^−6 cm · s^−1,17.4 10^−6 cm · s^−1,−0.9,18.1,2.5,0.7,47.8,69.2,9.9,1.4,37.7,55.7,13.5,10.3,blocked,Caco-2 permeability (in words) (Caco-2 monolayer): highly permeable; RE (Caco-2 monolayer; Caco-2): 0.9; Pe [2]: <LLOQ; Mean Remaining Parent (NADPH-free) [3]: 75%; Mean Remaining Parent (with NADPH) ([3]; 30 min of incubation): 12%; Mean Remaining Parent (NADPH-free) [4]: 86%; Mean Remaining Parent (with NADPH) [4]: 16%
N#CSc1cnc(N)s1 [Compound 10],,,,,,,,,,,,,,,,IC50 in intact Pala cells [5]: slightly larger IC50 values; AEP activity after addition of reducing agent (reversibility) (AEP): regained a substantial amount of activity; dose dependence of APP cleavage after OGD [1]: dose-dependent decrease; cleavage of APP after OGD ([1]; 1 μM compound): blocked
